# Measured values reported in ChEMBL document CHEMBL5291721, “A preclinical secondary pharmacology resource illuminates target-adverse drug reaction associations of marketed drugs” (Nat Commun, 2023).
# Legend:
# [1] = molecular target: T1, Amine oxidase [flavin-containing] A (Homo sapiens, UniProt P21397); type: functional
# T1 sequence (P21397 whole entry): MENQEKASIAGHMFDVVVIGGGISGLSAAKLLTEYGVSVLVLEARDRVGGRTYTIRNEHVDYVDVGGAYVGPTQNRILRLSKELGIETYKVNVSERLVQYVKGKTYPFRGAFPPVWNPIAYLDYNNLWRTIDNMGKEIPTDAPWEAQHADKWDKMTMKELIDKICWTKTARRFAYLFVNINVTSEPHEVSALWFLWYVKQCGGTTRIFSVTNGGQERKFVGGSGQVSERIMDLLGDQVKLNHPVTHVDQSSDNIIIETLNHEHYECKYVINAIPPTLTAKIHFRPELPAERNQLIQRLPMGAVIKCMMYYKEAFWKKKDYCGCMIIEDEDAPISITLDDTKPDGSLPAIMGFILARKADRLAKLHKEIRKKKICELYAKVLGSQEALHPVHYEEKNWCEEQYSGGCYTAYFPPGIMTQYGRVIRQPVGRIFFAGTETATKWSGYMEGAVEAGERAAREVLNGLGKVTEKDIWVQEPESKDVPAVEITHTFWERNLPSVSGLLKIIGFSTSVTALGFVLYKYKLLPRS
# [2] = molecular target: T2, Alpha-1A adrenergic receptor (Homo sapiens, UniProt P35348); type: functional, cell-based
# T2 sequence (P35348 whole entry): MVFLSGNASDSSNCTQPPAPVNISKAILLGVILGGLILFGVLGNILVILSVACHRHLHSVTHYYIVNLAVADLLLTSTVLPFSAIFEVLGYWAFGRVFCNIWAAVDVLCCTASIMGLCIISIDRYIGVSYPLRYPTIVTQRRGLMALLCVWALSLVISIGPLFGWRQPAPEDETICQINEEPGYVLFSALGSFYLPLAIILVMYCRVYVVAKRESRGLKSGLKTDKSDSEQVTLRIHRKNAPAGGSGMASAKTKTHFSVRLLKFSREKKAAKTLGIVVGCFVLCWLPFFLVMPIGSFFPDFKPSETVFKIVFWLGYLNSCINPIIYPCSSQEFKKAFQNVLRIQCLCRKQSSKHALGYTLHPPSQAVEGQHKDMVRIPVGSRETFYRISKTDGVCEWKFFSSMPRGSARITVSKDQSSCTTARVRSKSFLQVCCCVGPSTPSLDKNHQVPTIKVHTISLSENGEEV
# Mu-type opioid receptor = Mu-type opioid receptor (Homo sapiens, UniProt P35372)
# Mu-type opioid receptor, sequence (P35372 whole entry): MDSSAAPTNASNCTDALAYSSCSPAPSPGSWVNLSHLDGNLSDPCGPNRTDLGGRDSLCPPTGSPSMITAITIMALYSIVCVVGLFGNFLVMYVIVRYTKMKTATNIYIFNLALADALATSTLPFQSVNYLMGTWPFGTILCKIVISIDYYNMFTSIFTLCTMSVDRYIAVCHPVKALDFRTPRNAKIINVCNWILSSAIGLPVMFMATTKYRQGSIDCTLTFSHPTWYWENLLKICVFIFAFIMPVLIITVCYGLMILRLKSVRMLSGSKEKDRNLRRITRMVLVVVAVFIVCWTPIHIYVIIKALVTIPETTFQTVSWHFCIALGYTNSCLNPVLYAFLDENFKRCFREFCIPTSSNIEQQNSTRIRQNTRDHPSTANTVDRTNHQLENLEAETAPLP
# [3] = molecular target: 3',5'-cyclic-AMP phosphodiesterase 4A (Homo sapiens, UniProt P27815); type: functional
# 3',5'-cyclic-AMP phosphodiesterase 4A, sequence (P27815 whole entry): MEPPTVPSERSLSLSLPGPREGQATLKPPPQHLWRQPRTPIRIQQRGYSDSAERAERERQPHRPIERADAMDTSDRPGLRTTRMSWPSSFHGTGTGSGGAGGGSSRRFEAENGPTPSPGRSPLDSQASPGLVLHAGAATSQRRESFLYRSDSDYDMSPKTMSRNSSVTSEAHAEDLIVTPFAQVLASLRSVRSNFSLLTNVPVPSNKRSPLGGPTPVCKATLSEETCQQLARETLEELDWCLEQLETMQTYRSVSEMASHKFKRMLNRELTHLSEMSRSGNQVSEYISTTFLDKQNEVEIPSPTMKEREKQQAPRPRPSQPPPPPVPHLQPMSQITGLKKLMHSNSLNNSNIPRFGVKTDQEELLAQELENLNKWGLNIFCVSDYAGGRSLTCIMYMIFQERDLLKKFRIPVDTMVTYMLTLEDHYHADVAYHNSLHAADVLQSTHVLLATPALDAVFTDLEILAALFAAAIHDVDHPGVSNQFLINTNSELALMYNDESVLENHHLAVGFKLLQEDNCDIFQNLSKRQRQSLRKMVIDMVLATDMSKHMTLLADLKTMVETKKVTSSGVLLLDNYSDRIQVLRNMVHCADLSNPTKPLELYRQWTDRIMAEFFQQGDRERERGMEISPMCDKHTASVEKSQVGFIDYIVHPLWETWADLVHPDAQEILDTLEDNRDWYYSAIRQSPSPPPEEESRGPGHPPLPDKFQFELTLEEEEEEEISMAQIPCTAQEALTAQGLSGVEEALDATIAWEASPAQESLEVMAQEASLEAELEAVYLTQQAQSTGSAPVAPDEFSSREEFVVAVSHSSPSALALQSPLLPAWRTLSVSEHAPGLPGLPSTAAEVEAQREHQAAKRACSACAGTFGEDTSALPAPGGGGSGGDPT
# [4] = molecular target: T3, Alpha-2A adrenergic receptor (Homo sapiens, UniProt P08913)
# T3 sequence (P08913 whole entry): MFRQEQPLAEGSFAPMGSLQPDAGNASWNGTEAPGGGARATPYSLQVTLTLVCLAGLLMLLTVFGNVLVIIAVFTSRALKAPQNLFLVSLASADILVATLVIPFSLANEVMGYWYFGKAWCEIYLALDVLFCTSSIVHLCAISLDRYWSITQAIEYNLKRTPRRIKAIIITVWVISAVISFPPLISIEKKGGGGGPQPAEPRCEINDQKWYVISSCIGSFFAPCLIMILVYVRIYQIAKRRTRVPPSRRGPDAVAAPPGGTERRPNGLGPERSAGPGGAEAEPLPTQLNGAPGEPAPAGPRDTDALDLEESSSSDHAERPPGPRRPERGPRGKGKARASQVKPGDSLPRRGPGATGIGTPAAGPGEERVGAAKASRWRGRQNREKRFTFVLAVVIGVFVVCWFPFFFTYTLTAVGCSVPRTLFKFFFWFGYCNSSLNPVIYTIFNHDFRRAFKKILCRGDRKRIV
# [5] = molecular target: T4, Muscarinic acetylcholine receptor M2 (Homo sapiens, UniProt P08172)
# T4 sequence (P08172 whole entry): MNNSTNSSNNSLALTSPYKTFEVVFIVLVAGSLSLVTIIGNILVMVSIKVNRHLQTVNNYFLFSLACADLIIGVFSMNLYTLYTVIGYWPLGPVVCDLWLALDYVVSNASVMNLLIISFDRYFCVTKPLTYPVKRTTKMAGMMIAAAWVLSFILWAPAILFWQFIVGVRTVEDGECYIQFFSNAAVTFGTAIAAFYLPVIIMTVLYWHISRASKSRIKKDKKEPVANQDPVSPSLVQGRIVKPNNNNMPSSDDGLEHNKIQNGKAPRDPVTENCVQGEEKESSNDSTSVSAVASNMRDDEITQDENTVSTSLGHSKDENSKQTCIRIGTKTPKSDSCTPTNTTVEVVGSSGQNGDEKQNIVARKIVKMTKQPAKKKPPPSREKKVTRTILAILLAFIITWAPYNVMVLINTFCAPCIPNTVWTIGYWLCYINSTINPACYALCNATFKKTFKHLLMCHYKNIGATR
# [6] = molecular target: Sodium-dependent noradrenaline transporter (Homo sapiens, UniProt P23975)
# Sodium-dependent noradrenaline transporter, sequence (P23975 whole entry): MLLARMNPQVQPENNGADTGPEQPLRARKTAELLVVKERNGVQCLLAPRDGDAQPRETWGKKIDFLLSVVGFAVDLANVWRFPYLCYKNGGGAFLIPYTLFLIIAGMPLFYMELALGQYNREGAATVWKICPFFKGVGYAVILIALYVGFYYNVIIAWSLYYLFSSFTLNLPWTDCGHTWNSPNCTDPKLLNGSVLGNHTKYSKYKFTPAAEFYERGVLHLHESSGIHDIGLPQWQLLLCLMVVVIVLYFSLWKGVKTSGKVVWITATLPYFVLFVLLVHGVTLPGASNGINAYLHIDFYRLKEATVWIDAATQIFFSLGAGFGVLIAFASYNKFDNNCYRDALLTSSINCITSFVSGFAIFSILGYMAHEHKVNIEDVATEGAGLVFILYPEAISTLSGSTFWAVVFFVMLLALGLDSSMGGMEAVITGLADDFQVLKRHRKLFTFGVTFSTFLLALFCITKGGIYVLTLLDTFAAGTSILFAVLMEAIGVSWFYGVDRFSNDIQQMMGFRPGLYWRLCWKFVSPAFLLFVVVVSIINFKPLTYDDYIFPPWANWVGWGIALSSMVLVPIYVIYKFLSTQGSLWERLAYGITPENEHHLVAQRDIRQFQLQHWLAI
# Prothrombin = Prothrombin (Homo sapiens, UniProt P00734); type: functional
# D(1A) dopamine receptor = D(1A) dopamine receptor (Homo sapiens, UniProt P21728)
# D(1A) dopamine receptor, sequence (P21728 whole entry): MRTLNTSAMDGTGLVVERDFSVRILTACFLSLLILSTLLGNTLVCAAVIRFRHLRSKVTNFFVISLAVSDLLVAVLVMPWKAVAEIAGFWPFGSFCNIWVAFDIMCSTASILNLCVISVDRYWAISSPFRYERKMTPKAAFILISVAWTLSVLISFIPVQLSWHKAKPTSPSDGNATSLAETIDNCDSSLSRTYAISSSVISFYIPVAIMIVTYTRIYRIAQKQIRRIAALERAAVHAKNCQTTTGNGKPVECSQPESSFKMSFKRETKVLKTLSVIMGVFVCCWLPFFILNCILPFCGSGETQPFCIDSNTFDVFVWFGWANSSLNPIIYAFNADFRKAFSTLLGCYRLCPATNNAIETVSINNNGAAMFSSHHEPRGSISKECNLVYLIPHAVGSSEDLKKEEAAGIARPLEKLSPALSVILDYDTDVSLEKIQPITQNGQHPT
# [7] = molecular target: Voltage-gated inwardly rectifying potassium channel KCNH2 (Homo sapiens, UniProt Q12809); type: functional; details: read-out: AC50
# Voltage-gated inwardly rectifying potassium channel KCNH2, sequence (Q12809 whole entry): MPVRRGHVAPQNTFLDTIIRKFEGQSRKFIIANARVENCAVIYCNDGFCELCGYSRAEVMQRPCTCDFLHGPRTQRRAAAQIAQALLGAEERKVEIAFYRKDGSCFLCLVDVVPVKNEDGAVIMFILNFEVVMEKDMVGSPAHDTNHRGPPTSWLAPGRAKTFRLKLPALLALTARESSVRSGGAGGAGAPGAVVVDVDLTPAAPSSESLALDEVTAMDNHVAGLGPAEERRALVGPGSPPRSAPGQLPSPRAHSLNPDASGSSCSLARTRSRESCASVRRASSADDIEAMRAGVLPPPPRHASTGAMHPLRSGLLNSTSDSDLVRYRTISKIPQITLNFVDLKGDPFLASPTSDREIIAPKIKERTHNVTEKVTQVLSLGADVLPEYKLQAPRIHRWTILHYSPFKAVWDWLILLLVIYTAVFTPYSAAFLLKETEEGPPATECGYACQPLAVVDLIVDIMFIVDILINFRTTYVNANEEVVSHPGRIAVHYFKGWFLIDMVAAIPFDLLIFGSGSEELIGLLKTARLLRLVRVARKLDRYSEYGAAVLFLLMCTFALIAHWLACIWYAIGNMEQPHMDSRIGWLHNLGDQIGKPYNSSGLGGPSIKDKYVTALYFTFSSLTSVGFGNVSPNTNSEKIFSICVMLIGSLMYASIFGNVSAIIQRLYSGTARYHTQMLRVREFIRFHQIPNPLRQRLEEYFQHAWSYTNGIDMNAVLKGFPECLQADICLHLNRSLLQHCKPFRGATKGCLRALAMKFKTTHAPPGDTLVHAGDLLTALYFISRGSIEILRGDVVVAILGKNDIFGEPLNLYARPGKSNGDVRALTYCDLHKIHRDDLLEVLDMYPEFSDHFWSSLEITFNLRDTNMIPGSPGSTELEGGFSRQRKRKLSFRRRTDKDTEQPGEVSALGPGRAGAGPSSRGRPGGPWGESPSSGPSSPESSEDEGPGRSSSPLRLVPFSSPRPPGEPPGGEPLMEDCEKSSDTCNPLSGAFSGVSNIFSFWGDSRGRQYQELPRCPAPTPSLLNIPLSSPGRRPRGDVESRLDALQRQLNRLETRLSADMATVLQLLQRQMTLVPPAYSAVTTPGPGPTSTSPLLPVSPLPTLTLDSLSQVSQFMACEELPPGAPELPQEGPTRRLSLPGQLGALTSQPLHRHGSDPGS
# [8] = molecular target: Sodium-dependent dopamine transporter (Homo sapiens, UniProt Q01959)
# Sodium-dependent dopamine transporter, sequence (Q01959 whole entry): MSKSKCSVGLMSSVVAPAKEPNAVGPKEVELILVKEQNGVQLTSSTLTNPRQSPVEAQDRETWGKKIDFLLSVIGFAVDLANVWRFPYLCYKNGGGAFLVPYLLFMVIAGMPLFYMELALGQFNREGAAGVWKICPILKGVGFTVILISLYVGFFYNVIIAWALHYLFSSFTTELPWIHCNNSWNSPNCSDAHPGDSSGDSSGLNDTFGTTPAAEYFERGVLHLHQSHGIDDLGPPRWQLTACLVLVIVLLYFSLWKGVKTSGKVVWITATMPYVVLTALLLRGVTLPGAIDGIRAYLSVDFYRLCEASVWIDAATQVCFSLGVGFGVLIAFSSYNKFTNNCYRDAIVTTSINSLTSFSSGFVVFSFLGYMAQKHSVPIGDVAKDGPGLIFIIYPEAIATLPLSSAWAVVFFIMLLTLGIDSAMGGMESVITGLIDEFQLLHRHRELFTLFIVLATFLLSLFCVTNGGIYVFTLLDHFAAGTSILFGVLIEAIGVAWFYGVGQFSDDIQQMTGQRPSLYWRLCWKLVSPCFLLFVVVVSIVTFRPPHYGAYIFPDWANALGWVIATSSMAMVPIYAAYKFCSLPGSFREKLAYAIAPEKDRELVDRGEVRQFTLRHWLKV
# [9] = molecular target: T5, 5-hydroxytryptamine receptor 1A (Homo sapiens, UniProt P08908)
# T5 sequence (P08908 whole entry): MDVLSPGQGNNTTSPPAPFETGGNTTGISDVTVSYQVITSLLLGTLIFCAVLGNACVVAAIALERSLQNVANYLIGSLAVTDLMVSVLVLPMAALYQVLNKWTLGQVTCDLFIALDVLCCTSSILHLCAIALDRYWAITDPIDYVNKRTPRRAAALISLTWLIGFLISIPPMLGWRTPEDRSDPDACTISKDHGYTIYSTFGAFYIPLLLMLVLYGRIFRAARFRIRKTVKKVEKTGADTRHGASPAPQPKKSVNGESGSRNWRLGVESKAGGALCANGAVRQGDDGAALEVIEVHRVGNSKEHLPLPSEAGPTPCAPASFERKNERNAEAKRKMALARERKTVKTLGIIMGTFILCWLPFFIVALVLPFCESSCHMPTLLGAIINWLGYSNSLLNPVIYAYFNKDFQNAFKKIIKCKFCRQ
# Histamine H3 receptor = Histamine H3 receptor (Homo sapiens, UniProt Q9Y5N1)
# Histamine H3 receptor, sequence (Q9Y5N1 whole entry): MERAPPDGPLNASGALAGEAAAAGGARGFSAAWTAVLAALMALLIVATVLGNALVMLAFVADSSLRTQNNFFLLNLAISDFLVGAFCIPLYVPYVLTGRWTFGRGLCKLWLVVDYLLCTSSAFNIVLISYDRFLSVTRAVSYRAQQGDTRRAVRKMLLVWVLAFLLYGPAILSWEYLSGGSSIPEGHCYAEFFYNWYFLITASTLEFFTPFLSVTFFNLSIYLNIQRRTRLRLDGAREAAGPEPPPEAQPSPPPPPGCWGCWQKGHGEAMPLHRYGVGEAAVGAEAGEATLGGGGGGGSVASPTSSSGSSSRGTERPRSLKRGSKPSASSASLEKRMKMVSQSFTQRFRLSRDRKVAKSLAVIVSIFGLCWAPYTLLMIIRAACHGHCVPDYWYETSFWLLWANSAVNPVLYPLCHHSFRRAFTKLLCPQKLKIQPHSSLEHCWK
# D(3) dopamine receptor = D(3) dopamine receptor (Homo sapiens, UniProt P35462)
# D(3) dopamine receptor, sequence (P35462 whole entry): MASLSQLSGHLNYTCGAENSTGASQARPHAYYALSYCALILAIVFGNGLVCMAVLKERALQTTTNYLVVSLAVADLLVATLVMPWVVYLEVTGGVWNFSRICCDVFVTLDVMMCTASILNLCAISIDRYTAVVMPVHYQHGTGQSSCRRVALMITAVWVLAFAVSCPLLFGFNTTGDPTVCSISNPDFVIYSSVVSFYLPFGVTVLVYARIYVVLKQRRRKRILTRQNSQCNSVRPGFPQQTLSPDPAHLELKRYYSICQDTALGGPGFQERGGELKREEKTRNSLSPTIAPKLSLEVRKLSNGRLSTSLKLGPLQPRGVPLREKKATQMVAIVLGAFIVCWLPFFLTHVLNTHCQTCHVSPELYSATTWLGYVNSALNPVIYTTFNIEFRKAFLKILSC
# Note: assay procedure not described here.
SMILES,AC50 [1] [µM],AC50 [2] [µM],AC50 (Mu-type opioid receptor) [µM],AC50 [3] [µM],AC50 [4] [µM],AC50 [5] [µM],AC50 [6] [µM],AC50 (Prothrombin) [µM],AC50 (D(1A) dopamine receptor) [µM],AC50 [7] [µM],AC50 [8] [µM],AC50 [9] [µM],AC50 (Histamine H3 receptor) [µM],AC50 (D(3) dopamine receptor) [µM]
CC(C1=C(CCN(C)C)Cc2ccccc21)c1ccccn1 (stereo not drawn),> 30,> 30,7.04,> 30,15.1,0.0784,11.9,> 30,6.52,2.7,> 30,8.78,13.2,6.44
CC(=O)OC(C)OC(=O)C(C)c1ccc(-c2ccccc2)c(F)c1 (stereo not drawn),> 30,> 30,> 30,20.2,> 30,> 30,> 30,> 30,> 30,> 30,> 30,> 30,> 30,> 30
C[C@H](N)C(=O)O [ALANINE],> 30,> 30,> 30,> 30,> 30,> 30,> 30,> 30,> 30,> 30,> 30,> 30,> 30,> 30
O=C1c2c(O)cccc2Cc2cccc(O)c21 [ANTHRALIN],> 30,> 30,> 30,0.262,> 30,> 3,> 3,> 30,> 30,> 1,> 3,> 30,28.9,> 30
COC(=O)C1=C(C)NC(C)=C(C(=O)O[C@H]2CCN(Cc3ccccc3)C2)[C@H]1c1cccc([N+](=O)[O-])c1 [BARNIDIPINE],> 30,> 30,3.24,> 30,6.54,2.35,0.635,> 30,8.89,1.8,1.9,6.56,> 30,4.3
C[C@@H](O)[C@H]1C(=O)N2C(C(=O)[O-])=C(SC3Cn4cnc[n+]4C3)[C@H](C)[C@H]12 (stereo partly drawn) [BIAPENEM],> 30,> 30,> 30,> 30,> 30,> 30,> 30,> 30,> 30,> 30,> 30,> 30,> 30,> 30
CCCCOc1ccc(CC(=O)NO)cc1 [BUFEXAMAC],> 30,> 30,> 30,0.53,> 30,> 30,> 30,> 30,> 30,> 30,> 30,> 30,> 30,> 30
CO/N=C(\C(=O)N[C@@H]1C(=O)N2C(C(=O)[O-])=C(C[n+]3cccc4c3CCC4)CS[C@H]12)c1csc(N)n1 [CEFPIROME],> 30,> 30,> 30,> 30,> 30,> 30,> 30,> 30,> 30,> 30,> 30,> 30,> 30,> 30
Nc1ncnc(Nc2ccc(Cl)cc2)n1 [CHLORAZANIL],> 30,> 30,> 30,19.7,> 30,> 30,5.4,> 30,> 30,> 30,> 30,> 30,> 30,> 30
CC[C@H]1OC(=O)[C@H](C)[C@@H](O[C@H]2C[C@@](C)(OC)[C@@H](O)[C@H](C)O2)[C@H](C)[C@@H](O[C@@H]2O[C@H](C)C[C@H](N(C)C)[C@H]2O)[C@](C)(OC)C[C@@H](C)C(=O)[C@H](C)[C@@H](O)[C@]1(C)O [CLARITHROMYCIN],> 30,> 30,> 30,> 30,> 30,> 30,> 30,> 30,> 30,> 30,> 30,> 30,> 30,> 30
CCC[C@@H]1C[C@@H](C(=O)N[C@@H]([C@H]2O[C@H](SC)[C@H](OP(=O)(O)O)[C@@H](O)[C@H]2O)[C@H](C)Cl)N(C)C1 [CLINDAMYCIN PHOSPHATE],> 30,> 30,> 30,> 30,> 30,> 30,> 30,> 30,> 30,> 30,> 30,> 30,> 30,> 30
Cc1onc(-c2c(Cl)cccc2Cl)c1C(=O)N[C@@H]1C(=O)N2[C@@H]1SC(C)(C)[C@@H]2C(=O)O [DICLOXACILLIN],> 30,> 30,> 30,> 30,> 30,> 30,> 30,> 30,> 30,> 30,> 30,> 30,> 30,> 30
